According to patent publication US7955816B2, “Design and synthesis of biotinylated probes for N-acyl-ethanolamines” (Universita Degli Studi Di Roma “Tor Vergata”, priority 2006, dated 2011):

Assays:
[1] = test system: HaCaT cells; test: HaCaT cell differentiation (cornified envelope formation); type: cell-based, human; design: dose or concentration left out as unconfirmed; conditions: 5 days, FIG. 4
Description: Cell differentiation was induced by treating HaCaT cells with 12-O-tetradecanoylphorbol 13-acetate (TPA; 10 ng/ml) plus calcium chloride (CaCl2; 1.2 mM) for 5 days, as reported [Maccarrone et al., 2003]. AEA and b-AEA (or vehicle in the controls) were added directly to the culture medium at the same time as TPA plus calcium. Cornified envelope (CE), a hallmark of keratinocyte differentiation, was extracted from HaCaT cells (5×10^6/test) by exhaustive boiling and sonication in 2% SDS, 20 mM dithiothreitol, 0.1 M Tris-HCl pH 8.0, and 0.5 mM EDTA. CEs were then purified on Ficoll gradients and recovered as sonicated fragments, free of soluble keratin/filaggrin proteins, after pelleting through Ficoll as previously described [Maccarrone et al., 2003]. CE formation was quantified by spectrophotometry at 600 nm and was normalized to the protein content.

[2] = test system: HaCaT cells; conditions: Maccarrone et al., 2003, cited from earlier work
[3] = test system: AEA membrane transporter (AMT); test: AMT assay in HaCaT cells: uptake of the radiolabelled compound as substrate; type: cell-based, human; conditions: intact HaCaT cells
Description: (§1) HaCaT cells [Maccarrone et al., 2003], were cultured in Dulbecco's minimal essential supplemented with 10% fetal calf serum and 100 units/mL streptomycin/penicillin at 37° C. in a 5% CO2 humidified atmosphere. Cells were split twice a week at 1:5 ratio using 0.05% trypsin (w/v), 0.02% EDTA (w/v) in phosphate-buffered saline (PBS). These cells were grown in six-well plates (2×10^6 cells/well) and were incubated for 10 min at 37° C. with [^3H]AEA (Perkin-Elmer Life Sciences, Inc.; Boston, Mass.) or [^3H]b-AEA, and were washed three times with cold PBS containing 1% bovine serum albumin. To discriminate noncarrier-mediated from carrier-mediated transport of AEA, control experiments were carried out at 4° C. and the values subtracted from those at 37° C. Then, the cells were solubilized in 1 ml of 0.1 M NaOH and neutralized (50 μl of concentrated HCl), and radioactivity was determined by liquid scintillation counting. Incubations were also carried out with different concentrations of [^3H]AEA or [^3H]b-AEA, as indicated in the figures, to determine the apparent Michaelis-Menten constant (Km) and maximum velocity (Vmax). The effect of different compounds on AEA or b-AEA uptake was determined by adding each substance directly to the incubation medium, at different concentrations. The results are shown in FIG. 2A, Table 1 and Table 2.

[4] = target: T1, fatty acid amide hydrolase (FAAH) (Homo sapiens, UniProt O00519); test: FAAH activity in HaCaT cell extracts, compound as substrate; type: biochemical; conditions: for hydrolysis by FAAH (substrate or not): FIG. 2B
T1 construct: The reaction was initiated by the addition of HaCaT cell extracts; endogenous in cells; host or cells: HaCaT cell extracts
T1 sequence (O00519 1-579): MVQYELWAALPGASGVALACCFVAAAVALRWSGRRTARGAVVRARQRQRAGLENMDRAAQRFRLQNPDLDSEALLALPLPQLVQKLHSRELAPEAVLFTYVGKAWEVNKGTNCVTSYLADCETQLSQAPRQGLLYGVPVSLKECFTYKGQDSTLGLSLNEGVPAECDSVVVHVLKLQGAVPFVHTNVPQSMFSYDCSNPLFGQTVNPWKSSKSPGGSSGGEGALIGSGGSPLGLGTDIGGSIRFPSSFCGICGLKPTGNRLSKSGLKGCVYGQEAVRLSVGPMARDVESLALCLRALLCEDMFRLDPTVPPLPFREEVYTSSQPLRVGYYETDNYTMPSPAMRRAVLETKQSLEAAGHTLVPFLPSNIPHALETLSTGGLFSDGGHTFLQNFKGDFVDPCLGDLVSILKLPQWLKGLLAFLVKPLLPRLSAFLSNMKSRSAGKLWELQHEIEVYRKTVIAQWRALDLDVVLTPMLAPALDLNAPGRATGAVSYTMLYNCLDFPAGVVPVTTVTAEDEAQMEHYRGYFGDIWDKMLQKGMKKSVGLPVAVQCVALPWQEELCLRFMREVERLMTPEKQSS
Description: (§2) The assay of fatty acid amide hydrolase (E.C. 3.5.1.4, arachidonoylethanolamide amidohydrolase; FAAH) was performed by measuring the release of [^3H]AA from [^3H]AEA (68 mCi/mmol) or [^3H]b-AEA (10 mCi/mmol) through reversed phase high performance liquid chromatography (RP-HPLC) and on-line scintillation counting. [^3H]AEA or [^3H]b-AEA was added to hydrolase assay buffer (50 mM Tris.HCl, pH 9.0) at the indicated concentrations. The reaction was initiated by the addition of HaCaT cell extracts, was continued at 37° C. for 15 min, and then was stopped by the addition of methanol/chloroform/water, with vortexing. This mixture was centrifuged at 3000×g for 5 min, the lower organic phase was dried and the pellet was resuspended in 20 μl of methanol and subjected to RP-HPLC analysis for AA quantitation. The separations of [^3H]AEA or [^3H]b-AEA from [^3H]AA were carried out on a C18 (5 μm, 3.0×150 mm) column, with a mobile phase of methanol-water-acetic acid (85:15:0.1, v/v/v), at a flow rate of 0.8 ml/min. The amount [^3H]AA formed were calculated from the corresponding peak areas. The effect of different concentrations of b-AEA on [^3H]AEA hydrolysis was ascertained by adding the “cold” compound directly to the assay buffer. FAAH activity was expressed as pmol [^3H]AA released from [^3H]AEA per min per mg protein. The results are shown in FIG. 2B, Table 1 and Table 2.

[5] = test system: HaCaT cells; test: Fluorescence microscopy of b-AEA transport in HaCaT cells; type: cell-based, human
Description: HaCaT cells were plated at a density of 6×10^4 cells/ml on collagen-coated (0.5 mg/ml; Sigma, St. Louis, Mo.) glass coverslips (12 mm). Twenty-four hours after plating, cultures were either left untreated (by adding […] biotin EZ-Link Biotin-PEO-Amine, as negative control) or incubated with […] b-AEA for 10 min at 37° C. in a 5% CO2 humidified atmosphere. […] All steps of the immunofluorescence procedure were performed at room temperature. Cells were washed, fixed with 3% paraformaldehyde (Sigma) for 20 min, and then permeabilized with 0.1% Triton X-100 in PBS for 15 min. After a blocking step in Image-iT™ FX signal enhancer (Molecular Probes, Eugene, Oreg.) for 30 min, cells were incubated for 1 h with anti-biotin primary antibody (Molecular Probes, Eugene, Oreg.), diluted 1:50 in Image-iT™ FX signal enhancer. […] N-Piperidino-5-(4-chlorophenyl)-1-(2,4-dichloro-phenyl)-4-methyl-3-pyrazole carboxamide (SR141716), and N-[1(S)-endo-1,3,3-trimethyl-bicyclo[2.2.1]heptan-2-yl]-5-(4-chloro-3-methylphenyl)-1-(4-methyl-benzyl)-pyrazole-3-carboxa-mide (SR144528) were kind gifts from Sanofi-Aventis Recherche (Montpellier, France). OMDM-1 was a kind gift from Dr. S. Marinelli (Experimental Neurology, IRCCS Fondazione Santa Lucia, Rome, Italy).

[6] = target: T2, CB1R (Mus musculus, UniProt P47746); test: [3H]CP55.940 binding in mouse brain membrane fractions; conditions: mouse brain membranes, read-out: IC50 on CB1 receptors
T2 construct: membrane preparations from mouse brain or mouse spleen were used; from tissue; host or cells: mouse brain membrane fractions
T2 sequence (P47746 whole entry): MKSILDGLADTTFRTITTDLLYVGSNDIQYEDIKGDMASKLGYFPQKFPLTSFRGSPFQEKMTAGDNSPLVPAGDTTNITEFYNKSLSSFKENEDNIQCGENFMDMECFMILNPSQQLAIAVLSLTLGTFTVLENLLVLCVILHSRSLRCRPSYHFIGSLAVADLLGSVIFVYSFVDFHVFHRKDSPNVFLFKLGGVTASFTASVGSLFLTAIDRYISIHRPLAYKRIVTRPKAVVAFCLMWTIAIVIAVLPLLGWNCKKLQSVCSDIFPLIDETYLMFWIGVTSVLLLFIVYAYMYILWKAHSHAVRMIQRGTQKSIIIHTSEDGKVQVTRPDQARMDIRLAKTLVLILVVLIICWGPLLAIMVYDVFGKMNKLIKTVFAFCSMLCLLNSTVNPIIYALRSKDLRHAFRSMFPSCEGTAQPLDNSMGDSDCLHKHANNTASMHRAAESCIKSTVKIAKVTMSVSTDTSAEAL

[7] = target: T1, fatty acid amide hydrolase (FAAH); test: Inhibition of [3H]AEA hydrolysis by FAAH in HaCaT cell extracts; type: biochemical; conditions: at concentrations up to 10 μM
Description: as §2

[8] = target: T3, CB2R (Mus musculus, UniProt P47936); test: [3H]CP55.940 binding in mouse spleen membrane fractions; conditions: mouse spleen membranes, read-out: IC50 on CB2 receptors
T3 construct: membrane preparations from mouse brain or mouse spleen were used; from tissue; host or cells: mouse spleen membrane fractions
T3 sequence (P47936 whole entry): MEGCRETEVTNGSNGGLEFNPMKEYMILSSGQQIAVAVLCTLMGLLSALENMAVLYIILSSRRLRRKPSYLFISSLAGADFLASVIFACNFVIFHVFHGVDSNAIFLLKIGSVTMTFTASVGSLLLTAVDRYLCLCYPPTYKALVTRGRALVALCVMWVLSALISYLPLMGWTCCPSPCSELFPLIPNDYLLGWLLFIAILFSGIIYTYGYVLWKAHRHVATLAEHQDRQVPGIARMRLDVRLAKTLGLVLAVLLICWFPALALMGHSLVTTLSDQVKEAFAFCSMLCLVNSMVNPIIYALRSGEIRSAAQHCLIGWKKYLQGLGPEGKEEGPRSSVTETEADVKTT

[9] = test system: AEA membrane transporter (AMT); test: Inhibition of [3H]AEA uptake by AMT in intact HaCaT cells; type: cell-based, human; conditions: 0.5 μM [3H]AEA, read-out: IC50 for reduction of AEA uptake by AMT
Description: as §1

[10] = target: T4, NAPE-PLD (Homo sapiens, UniProt Q6IQ20); test: NAPE-PLD activity in HaCaT cell extracts; type: biochemical; conditions: at concentrations up to 10 μM
T4 construct: endogenous in cells; host or cells: HaCaT cell extracts
T4 sequence (Q6IQ20 whole entry): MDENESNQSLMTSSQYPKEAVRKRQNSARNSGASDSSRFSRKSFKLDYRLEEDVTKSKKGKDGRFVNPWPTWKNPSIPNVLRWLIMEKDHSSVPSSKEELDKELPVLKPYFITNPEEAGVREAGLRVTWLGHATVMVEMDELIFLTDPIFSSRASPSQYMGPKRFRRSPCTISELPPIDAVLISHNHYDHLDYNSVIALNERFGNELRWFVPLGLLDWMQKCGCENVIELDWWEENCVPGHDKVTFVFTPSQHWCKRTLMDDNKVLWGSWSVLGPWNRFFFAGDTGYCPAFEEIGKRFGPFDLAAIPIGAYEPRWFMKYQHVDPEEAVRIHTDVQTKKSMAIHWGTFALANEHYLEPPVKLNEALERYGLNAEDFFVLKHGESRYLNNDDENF
Description: HaCaT cell extracts (100 μg/test) were incubated at 37° C. for 30 min with a clear mixture of [^3H]NArPE (ARC; St. Louis, Mo.) and NArPE (“cold” NArPE was synthesized from AA and phosphatidylethanolamine) at a final specific activity of 6.8 nCi/nmol, in 200 μl of 50 mM Tris-HCl, pH 7.4, containing 0.1% Triton X-100. A mixture of chloroform/methanol (2:1, v/v; 600 μl) was added to stop the reaction. Then, the samples were vortexed and centrifuged at room temperature, and the lower organic phase was dried. The pellet was resuspended in 20 μl of methanol and subjected to RP-HPLC coupled to on-line scintillation counting. The separations were carried out on a C18 (5 μm, 3.0×150 mm) column with a mobile phase of methanol-water-acetic acid (85:15:0.1, v/v/v), at a flow rate of 0.8 ml/min. The amount of [^3H]AEA formed was calculated from the corresponding peak areas. The identity of the peaks was assessed also by UV detection of cold standard, recording absorbance at 204 nm. The effect of b-AEA on NAPE-PLD activity was ascertained by adding different concentrations of the biotin-derivative directly to the assay buffer. NAPE-PLD activity was expressed as pmol [^3H]AEA released from [^3H]NArPE per min per mg protein.

[11] = target: T5, TRPV1 (Rattus norvegicus, UniProt O35433); test: [3H]RTX binding in C6 cells membrane fractions; conditions: competition with [3H]RTX; read-out: IC50 on TRPV1 receptors
T5 construct: membrane fractions isolated from rat neuroblastoma C6 cells were used; endogenous in cells; host or cells: rat C6 cells, membrane fractions
T5 sequence (O35433 whole entry): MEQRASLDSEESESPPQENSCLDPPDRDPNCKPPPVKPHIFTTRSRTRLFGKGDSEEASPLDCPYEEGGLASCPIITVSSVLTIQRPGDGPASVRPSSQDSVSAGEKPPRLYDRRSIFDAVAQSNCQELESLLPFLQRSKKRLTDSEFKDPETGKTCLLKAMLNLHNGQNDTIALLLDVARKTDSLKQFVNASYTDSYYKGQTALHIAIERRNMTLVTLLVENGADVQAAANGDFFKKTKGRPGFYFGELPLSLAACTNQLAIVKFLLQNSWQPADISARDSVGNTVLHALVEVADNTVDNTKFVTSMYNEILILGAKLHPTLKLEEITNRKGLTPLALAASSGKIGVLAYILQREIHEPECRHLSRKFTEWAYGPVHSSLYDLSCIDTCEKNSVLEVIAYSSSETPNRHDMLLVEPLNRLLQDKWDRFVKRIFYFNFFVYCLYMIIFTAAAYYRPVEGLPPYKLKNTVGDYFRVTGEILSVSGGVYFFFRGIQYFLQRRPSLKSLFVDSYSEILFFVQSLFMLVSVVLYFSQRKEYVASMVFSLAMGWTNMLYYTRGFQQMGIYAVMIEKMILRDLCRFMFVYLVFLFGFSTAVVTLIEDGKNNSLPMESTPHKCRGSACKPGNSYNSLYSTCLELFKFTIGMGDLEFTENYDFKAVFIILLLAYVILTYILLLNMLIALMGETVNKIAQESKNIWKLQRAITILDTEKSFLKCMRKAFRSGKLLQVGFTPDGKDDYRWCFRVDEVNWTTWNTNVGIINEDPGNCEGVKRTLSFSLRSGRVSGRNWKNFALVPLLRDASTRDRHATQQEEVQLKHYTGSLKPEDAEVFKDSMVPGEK

[12] = target: T6, CB1R (Homo sapiens, UniProt P21554); type: binding; conditions: HaCaT membranes, FIG. 2C
T6 construct: endogenous in cells; host or cells: HaCaT cell membrane fractions
T6 sequence (P21554 whole entry): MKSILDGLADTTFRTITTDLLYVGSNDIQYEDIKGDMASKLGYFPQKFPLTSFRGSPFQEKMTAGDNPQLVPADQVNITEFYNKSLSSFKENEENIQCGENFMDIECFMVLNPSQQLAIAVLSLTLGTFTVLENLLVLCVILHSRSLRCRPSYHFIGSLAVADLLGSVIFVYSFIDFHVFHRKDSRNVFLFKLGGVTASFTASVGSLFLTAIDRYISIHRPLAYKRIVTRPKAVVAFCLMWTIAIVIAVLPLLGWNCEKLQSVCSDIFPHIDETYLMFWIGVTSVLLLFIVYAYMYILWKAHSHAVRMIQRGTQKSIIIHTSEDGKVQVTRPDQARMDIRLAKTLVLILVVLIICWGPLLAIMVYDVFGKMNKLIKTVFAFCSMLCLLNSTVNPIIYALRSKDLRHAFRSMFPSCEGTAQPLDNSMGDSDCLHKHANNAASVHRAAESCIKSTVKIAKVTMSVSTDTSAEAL

Question: With `CCCCC/C=C\C/C=C\C/C=C\C/C=C\CCCC(=O)NCCO` [AEA, N-arachidonoylethanolamine] as the compound, how does the “effect on HaCaT cell differentiation (CE formation induced by TPA+calcium)” value [1] read?
Answer: blocked

Question: And the “effect on CE formation in HaCaT cells” value ([2]; maximum effect at 1 μM)?
Answer: dose-dependently reduces CE formation

Question: And the “AMT Vmax” value [3]?
Answer: 124 ± 8 pmol/min per mg protein

Question: What about the Km [3] of the same compound?
Answer: 0.353 ± 0.06 µM

Question: And the “hydrolysis by FAAH (substrate or not)” value [4]?
Answer: hydrolyzed in a concentration-dependent manner

Question: And the “FAAH Vmax” value ([4]; compound as substrate)?
Answer: 385 ± 25 pmol/min per mg protein

Question: Which “effect on b-AEA immunostaining (uptake) of HaCaT cells” value ([5]; 5 μM, added 5 min before probe) does the source give for `CCCCCCCC/C=C\CCCCCCCC(=O)N[C@H](CO)Cc1ccc(O)cc1` [OMDM-1] here?
Answer: remarkable decrease of immunostaining

Question: For `Cc1c(C(=O)NN2CCCCC2)nn(-c2ccc(Cl)cc2Cl)c1-c1ccc(Cl)cc1` [SR141716, N-Piperidino-5-(4-chlorophenyl)-1-(2,4-dichloro-phenyl)-4-methyl-3-pyrazole carboxamide], which “reversal of the AEA effect on CE formation” value ([2]; 0.1 μM) is on record?
Answer: fully reversed

Question: For `NC(=O)c1cccc(-c2cccc(OC(=O)NC3CCCCC3)c2)c1` [URB597], which “effect on uptake and intracellular trafficking of b-AEA in HaCaT cells” value ([5]; 1 μM, added 5 min before probe) is on record?
Answer: did not affect

Question: With `CCCCC/C=C\C/C=C\C/C=C\C/C=C\CCCC(=O)NCCOCCOCCNC(=O)CCCC[C@@H]1SC[C@@H]2NC(=O)N[C@@H]21` [b-AEA, (+)-N-arachidonoyl-biotinyl-3,6-dioxaoctanediamine] as the compound, how does the IC50 [6] read?
Answer: > 10 µM

Question: What about the “effect on FAAH activity of HaCaT cells” value [7] of the same compound?
Answer: does not affect

Question: And the IC50 [8]?
Answer: > 10 µM

Question: And the “uptake by HaCaT cells seen by immunofluorescence” value ([5]; 5 M per test, FIG. 3)?
Answer: cells quickly take up b-AEA

Question: What about the “effect on HaCaT cell differentiation (CE formation induced by TPA+calcium)” value [1] of the same compound?
Answer: ineffective

Question: What about the IC50 [9] of the same compound?
Answer: 0.5 ± 0.1 µM

Question: What about the “effect on NAPE-PLD activity of HaCaT cells” value [10] of the same compound?
Answer: does not affect

Question: What about the “AMT Vmax” value [3] of the same compound?
Answer: 116 ± 10 pmol/min per mg protein

Question: What about the Km [3] of the same compound?
Answer: 0.421 ± 0.088 µM

Question: And the “AMT Vmax” value ([3]; listed as [^3H]b-AEA)?
Answer: 116 ±10 pmol/min per mg protein

Question: What about the IC50 [11] of the same compound?
Answer: > 10 µM

Question: What about the “binding to CB1 receptors of HaCaT cells” value [12] of the same compound?
Answer: did not bind

Question: What about the “hydrolysis by FAAH (substrate or not)” value [4] of the same compound?
Answer: not a substrate for FAAH
